Reference: US20260306506A1, “PYRIDO[4,3-D]PYRIMIDINE COMPOUNDS” (Pfizer Inc., priority 2023, published 2026)

Columns and labels:
G12C GDP KRAS (aa2-184) = G12C GDP KRAS (aa2-184) (Homo sapiens, UniProt P01116, G12C); experiment: biochemical
Method: (§5) The binding affinity and kinetics were measured by Surface Plasmon Resonance (SPR) using Biacore 8K or 8K+ (Cytiva, Marlborough, MA) instruments. Recombinant, C-terminal site-specific biotinylated, wild-type (WT) KRASGDP (aa1-185), G12DGDP KRAS (aa1-185), G12CGDP KRAS (aa2-184), G12VGDP KRAS (aa2-184), WT HRASGDP (aa2-184) and WT NRASGDP (aa2-185) proteins were purified in presence of 1 μM GDP. The GDP-loaded KRAS proteins then went through nucleotide exchange with GTPγS (a non-hydrolysable analog of GTP) in the presence of alkaline phosphatase beads to obtain WTGTPγS KRAS (aa1-185), G12DGTPγS KRAS (aa1-185), G12CGTPγS KRAS (aa2-184), G12VGTPγS KRAS (aa2-184), WT HRASGTPγS (aa2-184) and WT NRASGTPγS (aa2-185). Binding measurements were performed parallelly in sets of either WT/G12D/G12C/G12V KRAS or WT K/H/N RAS proteins in GDP- and/or GTPγS-loaded forms, respectively.
(§6) Biacore instrument was desorbed and docked with a Series S Sensor Chip SA. […] Compound binding kinetics were measured in either multi-cycle or single-cycle kinetic format.
(§7) A 2-fold, 10-point serial dilution of test compounds was set-up in a 96-well microplate (Greiner; Cat #650101) with a top concentration of either 10 μM or 100 μM. Binding kinetics was measured at 10° C. by injecting serial dilution of compounds onto both reference and RAS immobilized channels at a flow rate of 100 μL/min and association time of 90 seconds. Compound dissociation was monitored for at least 400 seconds during each cycle. […]
(§8) A 3-fold, 6-point serial dilution of compounds was set-up in a deep 96-well microplate (Greiner Bio; Cat #780201) with the highest concentration of 1 μM (concentration range: 0.004-1 μM). Binding kinetics was measured at 10° C. by injecting serial dilutions of compounds in increasing order onto reference as well as RAS immobilized channels at a flow rate of 100 μL/min and association time of 120 seconds. Compound dissociation was monitored for at least 3600 seconds. […]
(§9) Both MCK and SCK data were processed and analyzed using Biacore Insight evaluation software (Cytiva, Marlborough, MA)). […]

[1] = target: T1, wild-type (WT) KRAS GDP (aa1-185) (Homo sapiens, UniProt P01116); experiment: SPR binding (Biacore), GDP-loaded WT KRAS; settings: 10° C., geometric mean when n>1
T1 construct: wild-type (WT) KRASGDP (aa1-185); made in house
Excerpt: (§1) No additional regeneration was used.
(§2) Compound dissociation was monitored for at least 3600 seconds. […] No additional regeneration was used.

[2] = target: T2, G12D GTPγS KRAS (aa1-185) (Homo sapiens, UniProt P01116, G12D); experiment: SPR binding (Biacore), GTPγS-loaded KRAS G12D; settings: for Kd: 10° C., geometric mean when n>1, read-out: KRasGTPgS G12D SPR KD; for KRasGTPgS G12D SPR t1/2: dissociative half-life, t1/2=0.693/koff
T2 construct: G12DGDP KRAS (aa1-185); made in house
Excerpt: as §1, §2

[3] = system: H358 (non-small cell lung cancer cell line); experiment: KRAS Cell Titer Glo (CTG) viability assay, H358; assay type: cell-based; settings: H358, 7-day, geometric mean when n>1
Excerpt: (§3) The CellTiter-Glo® (CTG) Luminescent Cell Viability Assay is a homogeneous method of determining the number of viable cells in culture based on quantitation of the ATP present, an indicator of metabolically active cells. The CTG is designed for use with multi-well formats, making it ideal for automated high-throughput screening (HTS), cell proliferation and cytotoxicity assays. The homogeneous assay procedure involves adding the single reagent (CellTiter-Glo® Reagent) directly to cells cultured in serum-supplemented medium. Cell washing, removal of medium and multiple pipetting steps are not required. The system detects as few as 15 cells per well in a 384-well format in 10 minutes after adding reagent and mixing.
(§4) Cells are grown in humidified 5% CO2 incubator at 37° C. using the culture conditions outlined below. All cell culture media reagents were purchased from Gibco. Cell lines purchased from ATCC: H358 (non-small cell lung cancer cell line), SW620 (colorectal cancer cell line), PANC08.13 (RPM11640+10% FBS+10 units/ml Insulin, pancreatic cancer cell line). Test and control compounds are dispensed as nanoliter drops according to desired final concentrations in 0.1% DMSO using Echo Acoustic Dispenser onto 384 assay plates (Corning, Cat #3764) prior to cell seeding. Cells were seeded in 40 μL volume per well at the following cell densities (cells per well): H358 (300), SW620 (750), PANC 08.13 (600). Cells are incubated in the presence of compound for 7-days. Viability is determined on Day 7 using CellTiter-Glo® (CTG) Luminescent Cell Viability Assay (Promega). CTG is added to a final volume of 20 μl per well and incubated at room temperature for 15 minutes before luminescence is captured using an EnVision Reader with LUM384 US protocol. Data is analyzed using Activity Base to determine compound response and will be represented either as a percent effect (PCTEFF) or percent control (PCTOCTL) as described: Zero percent effect control (ZPE) (Negative control)—100% DMSO. Hundred percent effect (HPE) (Positive control)—1 μM Trametinib (GSK1120212, MEK inhibitor) (4 nl of 10 mM and 36 nl of DMSO per well). The following equations/nomenclature are used (% Effect; PCTEFF) and (% of Control; PCTOCTL): PCTEFF: 100*(Raw_Data_Value−HPE/ZPE−HPE), PCTOCTL: 100*Raw_Data_Value/User_Defined_Array), where the User_Defined_Array is either summarized HPE or ZPE.

[4] = target: T3, G12V GTPγS KRAS (aa2-184) (Homo sapiens, UniProt P01116, G12V); experiment: SPR binding (Biacore), GTPγS-loaded KRAS G12V; settings: for Kd: 10° C., geometric mean when n>1, read-out: KRasGTPgS G12V SPR KD; for KRasGTPgS G12V SPR t1/2: dissociative half-life, t1/2=0.693/koff
T3 construct: G12VGDP KRAS (aa2-184); made in house
Excerpt: as §1, §2

G12V GDP KRAS (aa2-184) = G12V GDP KRAS (aa2-184) (Homo sapiens, UniProt P01116, G12V); experiment: biochemical
Method: as §5, §6, §7, §8, §9

[5] = system: SW620 (colorectal cancer cell line); experiment: KRAS Cell Titer Glo (CTG) viability assay, SW620; assay type: cell-based; settings: SW620, 7-day, geometric mean when n>1
Excerpt: as §3, §4

[6] = target: T4, G12C GTPγS KRAS (aa2-184) (Homo sapiens, UniProt P01116, G12C); experiment: SPR binding (Biacore), GTPγS-loaded KRAS G12C; settings: for Kd: 10° C., geometric mean when n>1, read-out: KRasGTPgS G12C SPR KD; for KRasGTPgS G12C SPR t1/2: dissociative half-life, t1/2=0.693/koff
T4 construct: G12CGDP KRAS (aa2-184); made in house
Excerpt: as §1, §2

WT GTPγS KRAS (aa1-185) = target: T5, WT GTPγS KRAS (aa1-185) (Homo sapiens, UniProt P01116); experiment: SPR binding (Biacore), GTPγS-loaded WT KRAS; settings: for Kd: 10° C., geometric mean when n>1, read-out: KRasGTPgS SPR KD; for KRasGTPgS SPR t1/2: dissociative half-life, t1/2=0.693/koff
T5 construct: wild-type (WT) KRASGDP (aa1-185); made in house
Excerpt: as §1, §2

[7] = system: PANC08.13 (pancreatic cancer cell line); experiment: KRAS Cell Titer Glo (CTG) viability assay, Panc08.13; assay type: cell-based; settings: Panc08.13, 7-day, geometric mean when n>1
Excerpt: as §3, §4

G12D GDP KRAS (aa1-185) = G12D GDP KRAS (aa1-185) (Homo sapiens, UniProt P01116, G12D); experiment: biochemical
Method: as §5, §6, §7, §8, §9

[8] = Homo sapiens, PANC-08-13, 168 h

| Compound | IC50 ([3]; Homo sapiens, NCI-H358, 168 h) | IC50 ([5]; Homo sapiens, SW-620, 168 h) | IC50 [7, 8] | further results |
| --- | --- | --- | --- | --- |
| C#Cc1c(F)ccc2cc(O)cc(-c3nc4c5c(nc(OC[C@@]67CCCN6CC(=C)C7)nc5c3F)N(CC)CCO4)c12 [Example 37, 4-(10-ethyl-4-fluoro-2-{[(7aS)-2-methylidenetetrahydro-1H-pyrrolizin-7a(5H)-yl]methoxy}-9,10-dihydro-8H-7-oxa-1,3,6,10-tetraazacyclohepta[1,2,3-de]naphthalen-5-yl)-5-ethynyl-6-fluoronaphthalen-2-ol] | 40.5 nM | 138 nM | 18.3 nM | Kd (G12C GDP KRAS (aa2-184)): 0.01 nM; Kd [1]: 0.015 nM; Kd [2]: 1.27 nM; KRasGTPgS G12D SPR t1/2 [2]: 0.4 h; Kd [4]: 2.07 nM; KRasGTPgS G12V SPR t1/2 [4]: 0.4 h; Kd (G12V GDP KRAS (aa2-184)): 0.056 nM; Kd [6]: 3.02 nM; KRasGTPgS G12C SPR t1/2 [6]: 0.4 h; Kd (WT GTPγS KRAS (aa1-185)): 3.5 nM; KRasGTPgS SPR t1/2 (WT GTPγS KRAS (aa1-185)): 0.3 h; Kd (G12D GDP KRAS (aa1-185)): 0.018 nM |
| C#Cc1cccc2cc(O)cc(-c3ncc4c(N5C[C@@H]6C[C@H](C5)[C@H](O)C6)nc(OC[C@@]56CCCN5C[C@H](F)C6)nc4c3F)c12 [Example 9, (1R,5R,6R)-3-[7-(8-ethynyl-3-hydroxynaphthalen-1-yl)-8-fluoro-2-{[(2R,7aS)-2-fluorotetrahydro-1H-pyrrolizin-7a(5H)-yl]methoxy}pyrido[4,3-d]pyrimidin-4-yl]-3-azabicyclo[3.2.1]octan-6-ol] | 112 nM | 166 nM | 12.3 nM |  |
| C#Cc1c(F)ccc2cc(O)cc(-c3nc4c5c(nc(OC[C@@]67CCCN6C[C@H](F)C7)nc5c3F)N3CCCC[C@H]3CO4)c12 [Example 23, 5-ethynyl-6-fluoro-4-[(8aS)-4-fluoro-2-{[(2R,7aS)-2-fluorotetrahydro-1H-pyrrolizin-7a(5H)-yl]methoxy}-8,8a,9,10,11,12-hexahydro-7-oxa-1,3,6,12a-tetraazabenzo[4,5]cyclohepta[1,2,3-de]naphthalen-5-yl]naphthalen-2-ol] | 74 nM | 46 nM | 1.2 nM |  |
| C#Cc1c(F)ccc2cc(O)cc(-c3ncc4c(N5C[C@@H]6C[C@H](C5)[C@H](O)C6)nc(OC[C@@]56CCCN5C[C@H](F)C6)nc4c3F)c12 [Example 10, (1R,5R,6R)-3-[7-(8-ethynyl-7-fluoro-3-hydroxynaphthalen-1-yl)-8-fluoro-2-{[(2R,7aS)-2-fluorotetrahydro-1H-pyrrolizin-7a(5H)-yl]methoxy}pyrido[4,3-d]pyrimidin-4-yl]-3-azabicyclo[3.2.1]octan-6-ol] | 26.9 nM | 35.7 nM | 8.15 nM |  |
| C#Cc1c(F)ccc2cc(O)cc(-c3ncc4c(N5CCC[C@@H](CC#N)C5)nc(OC[C@@]56CCCN5C[C@H](F)C6)nc4c3F)c12 [Example 15, {(3S)-1-[7-(8-ethynyl-7-fluoro-3-hydroxynaphthalen-1-yl)-8-fluoro-2-{[(2R,7aS)-2-fluorotetrahydro-1H-pyrrolizin-7a(5H)-yl]methoxy}pyrido[4,3-d]pyrimidin-4-yl]piperidin-3-yl}acetonitrile] | 493 nM | 871 nM | 121 nM |  |
| Oc1cc(-c2ncc3c(N4C[C@@H]5C[C@H](C4)[C@H](O)C5)nc(OC[C@@]45CCCN4C[C@H](F)C5)nc3c2F)c2c(F)c(F)ccc2c1 [Example 14, (1R,5R,6R)-3-[7-(7,8-difluoro-3-hydroxynaphthalen-1-yl)-8-fluoro-2-{[(2R,7aS)-2-fluorotetrahydro-1H-pyrrolizin-7a(5H)-yl]methoxy}pyrido[4,3-d]pyrimidin-4-yl]-3-azabicyclo[3.2.1]octan-6-ol] | 41.6 nM | 35.3 nM | 10.8 nM |  |
| N#CC[C@@H]1CCCN(c2nc(OC[C@@]34CCCN3C[C@H](F)C4)nc3c(F)c(-c4cc(O)cc5ccc(F)c(F)c45)ncc23)C1 [Example 12, {(3S)-1-[7-(7,8-difluoro-3-hydroxynaphthalen-1-yl)-8-fluoro-2-{[(2R,7aS)-2-fluorotetrahydro-1H-pyrrolizin-7a(5H)-yl]methoxy}pyrido[4,3-d]pyrimidin-4-yl]piperidin-3-yl}acetonitrile] | 115 nM | 136 nM | 19.8 nM |  |
| Oc1cc(-c2ncc3c(N4C[C@@H]5C[C@H](C4)[C@H](O)C5)nc(OC[C@@]45CCCN4C[C@H](F)C5)nc3c2F)c2c(Cl)cccc2c1 [Example 20, (1R,5R,6R)-3-[7-(8-chloro-3-hydroxynaphthalen-1-yl)-8-fluoro-2-{[(2R,7aS)-2-fluorotetrahydro-1H-pyrrolizin-7a(5H)-yl]methoxy}pyrido[4,3-d]pyrimidin-4-yl]-3-azabicyclo[3.2.1]octan-6-ol] | 142 nM | 164 nM | 45.2 nM |  |
| C#Cc1c(F)c(F)cc2cc(O)cc(-c3nc4c5c(nc(OC[C@@]67CCCN6C[C@H](F)C7)nc5c3F)N3CCCC[C@H]3CO4)c12 [Example 33, 5-ethynyl-6,7-difluoro-4-[(8aS)-4-fluoro-2-{[(2R,7aS)-2-fluorotetrahydro-1H-pyrrolizin-7a(5H)-yl]methoxy}-8,8a,9,10,11,12-hexahydro-7-oxa-1,3,6,12a-tetraazabenzo[4,5]cyclohepta[1,2,3-de]naphthalen-5-yl]naphthalen-2-ol] |  |  |  | Kd [2]: 0.119 nM; KRasGTPgS G12D SPR t1/2 [2]: 9.9 h; IC50 [3]: 3.9 nM; Kd [4]: 0.172 nM; KRasGTPgS G12V SPR t1/2 [4]: 12.7 h; IC50 [5]: 6.6 nM; Kd [6]: 0.205 nM; KRasGTPgS G12C SPR t1/2 [6]: 17.6 h; Kd (WT GTPγS KRAS (aa1-185)): 0.168 nM; KRasGTPgS SPR t1/2 (WT GTPγS KRAS (aa1-185)): 12.7 h; IC50 [7]: 1.1 nM |
| C#Cc1c(F)c(F)cc2cc(O)cc(-c3nc4c5c(nc(OC[C@@]67CCCN6C[C@H](F)C7)nc5c3F)N3CCCC[C@H]3CO4)c12 [Example 32, 5-ethynyl-6,7-difluoro-4-[(8aS)-4-fluoro-2-{[(2R,7aS)-2-fluorotetrahydro-1H-pyrrolizin-7a(5H)-yl]methoxy}-8,8a,9,10,11,12-hexahydro-7-oxa-1,3,6,12a-tetraazabenzo[4,5]cyclohepta[1,2,3-de]naphthalen-5-yl]naphthalen-2-ol] |  |  | 2.1 nM | IC50 [3]: 48 nM; IC50 [5]: 45 nM |
